{"source": "patent US20120238554A1", "about": "“SALTS OF POTASSIUM ATP CHANNEL OPENERS AND USES THEREOF” (priority 2007, published 2012)", "key": {"[1]": {"assay": "Form conversion and degradation under thermal stress (60° C.)", "settings": "60° C., closed, protected from light, 7 and 14 days", "method": "Studies were also conducted to evaluate the likelihood for conversion and degradation under thermal stress."}, "[2]": {"assay": "Solubility in 100 mM phosphate buffer with titration, 18 h slurry (Table 15)", "format": "physicochemical", "settings": "thermodynamic from solid, ambient", "method": "Each determination was carried out in duplicate, slurrying each sample in a 100 mM phosphate buffer solution, pH 7.00. […] After this time all samples were centrifuged, and the supernatant was diluted with mobile phase (MeCN/Water.)."}, "[3]": {"test_system": "Zucker Diabetic Fatty (ZDF) rats", "settings": "150 mg/kg/day, 8 weeks; cited from earlier work"}, "[4]": {"test_system": "obese subjects", "assay": "Single 200 mg dose study: fasting glucose, insulin, NEFA, serum Na, K, creatinine", "settings": "either formulation", "description": "Three exploratory endpoints were evaluated in the study. Blood glucose, insulin and non-esterified fatty acids (NEFA) were measured prior to dosing and at 1, 3, 6, 9, 12, 24, and 48 hours post dosing. Blood glucose and insulin levels were also assessed at end of study. Data collected at times 1, 3, 24, and 48 hours after dose administration were obtained under fasting conditions. The remaining data points were post-prandial measures."}, "[5]": {"assay": "Moisture sorption analysis", "format": "physicochemical", "method": "Moisture Sorption Analysis was performed with a Hiden IGAsorp Moisture Sorption Instrument, Samples were first dried at 0% relative humidity at 25° C. until an equilibrium weight was reached, or for a maximum of 4 hours. Samples were then subjected to an isothermal (25° C.) scan from 10-90% relative humidity in steps of 10%. The samples were allowed to equilibrate to an asymptotic weight at each point for a maximum of 4 hours. Following absorption, a desorption scan from […] relative humidity (at 25° C.) was run in steps of −10%, again allowing a maximum of 4 hours for the samples to equilibrate. The resulting samples after desorption were dried at 80° C. for two hours and analyzed by XRPD."}, "[6]": {"assay": "Slurry studies of inter-conversion of the solid form", "settings": "room temperature, no light, 14 days; water, isopropyl alcohol, dichloromethane, toluene"}, "[7]": {"test_system": "patients with elevated fasting triglycerides", "assay": "Diazoxide treatment of hypertriglyceridemia, 7 to 49 days: fasting triglycerides, LDL-cholesterol", "format": "in vivo, human", "settings": "for fasting triglycerides reduced: titrated patients", "description": "All patients were dosed once per day for an uninterrupted period of time.\nPatients were placed on a low fat diet at the start of treatment which continued to the end of treatment.\nEach subject's baseline circulating triglyceride level was calculated as the average of two measurements of fasting triglycerides taken approximately two weeks apart, with the second taken predose on the first day of treatment."}, "[8]": {"test_system": "barbital-anesthetized open-chest pigs", "settings": "3.5 mg/kg IV, 30 min occlusion, 3 h reflow, n=7; cited from earlier work"}, "[9]": {"test_system": "person with pulmonary hypertension", "settings": "oral diazoxide over six years; cited from earlier work"}, "[10]": {"test_system": "cardiomyocytes from the infarct border zone", "settings": "cardiomyocytes from the infarct border zone (74 ms without, sham 41 ms); cited from earlier work"}, "[11]": {"test_system": "patients with primary pulmonary hypertension", "settings": "cited from earlier work"}}}
{"smiles": "CC1=NS(=O)(=O)c2cc(Cl)ccc2N1", "note": "[diazoxide, 7-chloro-3-methyl-2H-1,2,4-benzothiadiazine 1,1 dioxide]", "values": [{"measurement": "form conversion and degradation under thermal stress (XRPD, DSC)", "setting": "[1]", "result": "no conversion or degradation"}, {"measurement": "solubility at 18 h", "setting": "[2]; pH 6.9, aqueous buffer, pH after slurry 6.90", "result": 70, "unit": "µg/mL"}, {"measurement": "solubility at 18 h", "setting": "[2]; pH 7.31, aqueous buffer, pH after slurry 7.31", "result": 70, "unit": "µg/mL"}, {"measurement": "hepatic triglycerides, long chain acyl-CoA and cholesterol contents", "setting": "[3]", "result": "decreased"}, {"measurement": "fasting glucose", "setting": "[4]; 24 or 48 hours after dose administration", "result": "no evidence for a significant increase in fasting glucose"}, {"measurement": "fasting insulin", "setting": "[4]; after the single 200 mg dose", "result": "no evidence for a reduction in fasting insulin"}, {"measurement": "crystalline form after moisture sorption/desorption (XRPD)", "setting": "[5]", "result": "same crystalline form"}, {"measurement": "hydrate formation (hysteresis upon desorption)", "setting": "[5]; 25° C.", "result": "does not form a stable hydrate"}, {"measurement": "Moisture Sorption (hygroscopicity)", "setting": "[5]; 25° C., listed as free form diazoxide", "result": "non-hygroscopic"}, {"measurement": "water absorbed", "setting": "[5]; 60% RH, 25° C.", "result": "approximately 0.04 wt %"}, {"measurement": "water absorbed", "setting": "[5]; 90% RH, 25° C.", "result": "~0.20", "unit": "wt %"}, {"measurement": "inter-conversion of the solid form in slurry", "setting": "[6]", "result": "did not convert to alternate crystal forms"}, {"measurement": "reductions in fasting triglycerides", "setting": "[7]; 100 mg per day diazoxide equivalent as Diazoxide Choline Controlled-Release Tablets, 7 days", "result": 38, "unit": "%"}, {"measurement": "reductions in fasting triglycerides", "setting": "[7]; 100 mg per day diazoxide equivalent, 14 days", "result": 18, "unit": "%"}, {"measurement": "reductions in fasting triglycerides", "setting": "[7]; 150 mg for 5 days then 300 mg for 9 days, at 7 and 14 days", "result": 50, "unit": "%"}, {"measurement": "reductions in fasting triglycerides", "setting": "[7]; 200 mg per day diazoxide equivalent, 7 days", "result": 23, "unit": "%"}, {"measurement": "reductions in fasting triglycerides", "setting": "[7]; 200 mg per day diazoxide equivalent, 14 days", "result": 20, "unit": "%"}, {"measurement": "reductions in fasting triglycerides", "setting": "[7]; 300 mg per day diazoxide equivalent, 7 days", "result": 18, "unit": "%"}, {"measurement": "reductions in fasting triglycerides", "setting": "[7]; 300 mg per day diazoxide equivalent, 14 days", "result": 29, "unit": "%"}, {"measurement": "reductions in fasting triglycerides", "setting": "[7]; 400 mg per day diazoxide equivalent, 7 days", "result": 50, "unit": "%"}, {"measurement": "rise in LDL-cholesterol", "setting": "[7]; Patient 13, day 21", "result": 6.7, "unit": "%"}, {"measurement": "rise in LDL-cholesterol", "setting": "[7]; Patient 13, day 42", "result": 11, "unit": "%"}, {"measurement": "reductions in LDL-cholesterol", "setting": "[7]; patient 8", "result": "−8.6", "unit": "%"}, {"measurement": "reductions in LDL-cholesterol", "setting": "[7]; patient 9", "result": "−15.3", "unit": "%"}, {"measurement": "fasting triglycerides reduced", "setting": "[7]; end of treatment with 150 mg", "result": 21, "unit": "%"}, {"measurement": "fasting triglycerides reduced", "setting": "[7]; end of treatment with 200 mg", "result": 31, "unit": "%"}, {"measurement": "fasting triglycerides reduced", "setting": "[7]; end of treatment with 250 mg", "result": 38, "unit": "%"}, {"measurement": "fasting triglycerides reduced", "setting": "[7]; end of treatment with 300 mg", "result": 38, "unit": "%"}, {"measurement": "fasting triglycerides reduced", "setting": "[7]; end of treatment with 350 mg", "result": 49, "unit": "%"}, {"measurement": "Infarct size (percentage of the area at risk)", "setting": "[8]", "result": "14.6±7.4", "unit": "%"}, {"measurement": "pulmonary arterial pressure", "setting": "[9]", "result": "reduced to normal levels"}, {"measurement": "action potential duration", "setting": "[10]", "result": 42, "unit": "ms"}, {"measurement": "change in pulmonary artery pressure", "setting": "[11]; injected into the pulmonary artery, nine patients", "result": "no significant change"}, {"measurement": "patients unable to tolerate the drug", "setting": "[11]; oral diazoxide given to seven patients", "result": "Five"}]}
